# Results published in the supplement of paper PMC10307832.
# Columns and labels:
# Test in all cases: relative viability (nuclei count vs DMSO), 5 days (fraction); higher = more cells survive
# [1] = compound: C1=CC(=CC=C1C2=CC(=C(S2)NC(=O)N)C(=O)N)F [TPCA-1] + COc1cccc2cc(-c3nc([C@H]4CC[C@H](C(=O)O)CC4)n4ncnc(N)c34)[nH]c12 [OSI-027] (partner 0.5 µM)
# Method in brief: (§1)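 The day after seeding in 1536-well plates, lung cancer cell lines were treated by pin tool with a single drug, or with a fixed anchor-drug dose together with five library-drug doses (not always all listed) in √10 steps. After 5 days, a combined fix-and-stain solution (final 0.05% Triton X-100, 1% formaldehyde, 1 ug/ml Hoechst) was added. Nuclei counted on 4× images gave relative viability as treated counts over vehicle counts, reported as the median of duplicate plates.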
# [2] = compound: C1=CC(=CC=C1C2=CC(=C(S2)NC(=O)N)C(=O)N)F [TPCA-1] + CS(=O)(=O)CCNCc1ccc(-c2ccc3ncnc(Nc4ccc(OCc5cccc(F)c5)c(Cl)c4)c3c2)o1 [Lapatinib] (partner 2 µM)
# Method in brief: as §1
# [3] = compound: C1=CC(=CC=C1C2=CC(=C(S2)NC(=O)N)C(=O)N)F [TPCA-1] + Nc1nc2[nH]cc(CCc3ccc(C(=O)N[C@@H](CCC(=O)O)C(=O)O)cc3)c2c(=O)[nH]1 [Pemetrexed] (partner 0.2 µM)
# Method in brief: as §1
# [4] = compound: C[C@]12O[C@H](C[C@]1(O)CO)n1c3ccccc3c3c4c(c5c6ccccc6n2c5c31)CNC4=O [Lestaurtinib] + C[C@@H](Oc1cc(-c2cnn(C3CCNCC3)c2)cnc1N)c1c(Cl)ccc(F)c1Cl [Crizotinib] (partner 1 µM)
# Method in brief: as §1
cell line,measurement,setting,value
UMC-11,relative viability,[1]; first compound 0.04 µM,0.536
same,relative viability,[1]; first compound 0.1265 µM,0.337
same,relative viability,[1]; first compound 0.4 µM,0.466
same,relative viability,[1]; first compound 1.265 µM,0.4
same,relative viability,[1]; first compound 4 µM,0.234
same,relative viability,[2]; first compound 0.04 µM,1.18
same,relative viability,[2]; first compound 0.1265 µM,0.754
same,relative viability,[2]; first compound 0.4 µM,0.69
same,relative viability,[2]; first compound 1.265 µM,0.956
same,relative viability,[2]; first compound 4 µM,0.178
same,relative viability,[3]; first compound 0.04 µM,0.809
same,relative viability,[3]; first compound 0.1265 µM,0.763
same,relative viability,[3]; first compound 0.4 µM,0.843
same,relative viability,[3]; first compound 1.265 µM,0.776
same,relative viability,[3]; first compound 4 µM,0.799
same,relative viability,[4]; first compound 0.005 µM,0.5
same,relative viability,[4]; first compound 0.01581 µM,0.6
same,relative viability,[4]; first compound 0.05 µM,0.416
same,relative viability,[4]; first compound 0.1581 µM,0.248
same,relative viability,[4]; first compound 0.5 µM,0.107
